Measured values taken from PubChem BioAssay (NCI).
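96-well plates; 48 h exposure; 5 concentrations. Endpoints by linear interpolation between flanking doses. Not reached: highest tested concentration assigned. TGI is the concentration that stops growth completely.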

Legend:
Experiment in all cases: inhibition of tumour cell growth, NCI panel, 48 h
SNB-19 CNS = system: SNB-19 CNS
HL-60(TB) leukemia = system: HL-60(TB) leukemia
HOP-92 NSCLC = system: HOP-92 NSCLC
RXF 393 renal = system: RXF 393 renal
MOLT-4 leukemia = system: MOLT-4 leukemia
SK-MEL-5 melanoma = system: SK-MEL-5 melanoma
HCT-116 colon = system: HCT-116 colon
OVCAR-4 ovarian = system: OVCAR-4 ovarian
SF-539 CNS = system: SF-539 CNS
A498 renal = system: A498 renal
DU-145 prostate = system: DU-145 prostate
HCT-15 colon = system: HCT-15 colon
PC-3 prostate = system: PC-3 prostate
LOX IMVI melanoma = system: LOX IMVI melanoma
MALME-3M melanoma = system: MALME-3M melanoma
NCI-H522 lung = system: NCI-H522 lung
OVCAR-3 ovarian = system: OVCAR-3 ovarian
HT29 colon = system: HT29 colon
SR leukemia = system: SR leukemia
COLO 205 colon = system: COLO 205 colon
MDA-N = system: MDA-N
UACC-257 melanoma = system: UACC-257 melanoma
NCI/ADR-RES ovarian = system: NCI/ADR-RES ovarian
BT-549 breast = system: BT-549 breast
IGROV1 ovarian = system: IGROV1 ovarian
M14 melanoma = system: M14 melanoma
CCRF-CEM leukemia = system: CCRF-CEM leukemia
SK-OV-3 ovarian = system: SK-OV-3 ovarian
KM12 colon = system: KM12 colon
786-0 renal = system: 786-0 renal
SW-620 colon = system: SW-620 colon
TK-10 renal = system: TK-10 renal
HS 578T breast = system: HS 578T breast
CAKI-1 renal = system: CAKI-1 renal
UO-31 renal = system: UO-31 renal
RPMI-8226 leukemia = system: RPMI-8226 leukemia
T-47D breast = system: T-47D breast
NCI-H460 lung = system: NCI-H460 lung
MDA-MB-435 = system: MDA-MB-435
SNB-75 CNS = system: SNB-75 CNS
ACHN renal = system: ACHN renal
SF-295 CNS = system: SF-295 CNS
MCF7 breast = system: MCF7 breast
HCC-2998 colon = system: HCC-2998 colon
NCI-H226 lung = system: NCI-H226 lung
NCI-H23 lung = system: NCI-H23 lung
EKVX NSCLC = system: EKVX NSCLC
A549 NSCLC = system: A549 NSCLC
SF-268 CNS = system: SF-268 CNS
SK-MEL-28 melanoma = system: SK-MEL-28 melanoma
HOP-62 NSCLC = system: HOP-62 NSCLC
UACC-62 melanoma = system: UACC-62 melanoma
SN12C renal = system: SN12C renal
U251 CNS = system: U251 CNS
OVCAR-8 ovarian = system: OVCAR-8 ovarian
MDA-MB-231 breast = system: MDA-MB-231 breast
OVCAR-5 ovarian = system: OVCAR-5 ovarian
SK-MEL-2 melanoma = system: SK-MEL-2 melanoma
K-562 leukemia = system: K-562 leukemia

## COc1cc(OC)c2nc3occc3c(OC)c2c1
SNB-19 CNS
  TGI: > 100 µM
HL-60(TB) leukemia
  TGI: > 100 µM
HOP-92 NSCLC
  TGI: > 100 µM
RXF 393 renal
  TGI: > 100 µM
MOLT-4 leukemia
  TGI: > 100 µM
SK-MEL-5 melanoma
  TGI: > 100 µM
HCT-116 colon
  TGI: > 100 µM
OVCAR-4 ovarian
  TGI: > 100 µM
SF-539 CNS
  TGI: > 100 µM
A498 renal
  TGI: > 100 µM
DU-145 prostate
  TGI: > 100 µM
HCT-15 colon
  TGI: > 100 µM
PC-3 prostate
  TGI: > 100 µM
LOX IMVI melanoma
  TGI: > 100 µM
MALME-3M melanoma
  TGI: > 100 µM
NCI-H522 lung
  TGI: > 100 µM
OVCAR-3 ovarian
  TGI: > 100 µM
HT29 colon
  TGI: > 100 µM
SR leukemia
  TGI: > 100 µM
COLO 205 colon
  TGI: > 100 µM
MDA-N
  TGI: > 100 µM
UACC-257 melanoma
  TGI: > 100 µM
NCI/ADR-RES ovarian
  TGI: > 100 µM
BT-549 breast
  TGI: > 100 µM
IGROV1 ovarian
  TGI: > 100 µM
M14 melanoma
  TGI: > 100 µM
CCRF-CEM leukemia
  TGI: > 100 µM
SK-OV-3 ovarian
  TGI: > 100 µM
KM12 colon
  TGI: > 100 µM
786-0 renal
  TGI: > 100 µM
SW-620 colon
  TGI: > 100 µM
TK-10 renal
  TGI: > 100 µM
HS 578T breast
  TGI: > 100 µM
CAKI-1 renal
  TGI: > 100 µM
UO-31 renal
  TGI: > 100 µM
RPMI-8226 leukemia
  TGI: > 100 µM
T-47D breast
  TGI: > 100 µM
NCI-H460 lung
  TGI: > 100 µM
MDA-MB-435
  TGI: > 100 µM
SNB-75 CNS
  TGI: > 100 µM
ACHN renal
  TGI: > 100 µM
SF-295 CNS
  TGI: > 100 µM
MCF7 breast
  TGI: > 100 µM
HCC-2998 colon
  TGI: > 100 µM
NCI-H226 lung
  TGI: > 100 µM
NCI-H23 lung
  TGI: > 100 µM
EKVX NSCLC
  TGI: > 100 µM
A549 NSCLC
  TGI: > 100 µM
SF-268 CNS
  TGI: > 100 µM
SK-MEL-28 melanoma
  TGI: > 100 µM
HOP-62 NSCLC
  TGI: > 100 µM
UACC-62 melanoma
  TGI: > 100 µM
SN12C renal
  TGI: > 100 µM
U251 CNS
  TGI: > 100 µM
OVCAR-8 ovarian
  TGI: > 100 µM
MDA-MB-231 breast
  TGI: > 100 µM
OVCAR-5 ovarian
  TGI: > 100 µM
SK-MEL-2 melanoma
  TGI: > 100 µM

## CCc1n[nH]c(=O)n1N1C(=O)C2CCCCC2C1=O (stereo unspecified)
HL-60(TB) leukemia
  TGI: > 100 µM
HOP-92 NSCLC
  TGI: > 100 µM
RXF 393 renal
  TGI: > 100 µM
MOLT-4 leukemia
  TGI: > 100 µM
SK-MEL-5 melanoma
  TGI: > 100 µM
HCT-116 colon
  TGI: > 100 µM
OVCAR-4 ovarian
  TGI: > 100 µM
A498 renal
  TGI: > 100 µM
DU-145 prostate
  TGI: > 100 µM
HCT-15 colon
  TGI: > 100 µM
PC-3 prostate
  TGI: > 100 µM
LOX IMVI melanoma
  TGI: > 100 µM
MALME-3M melanoma
  TGI: > 100 µM
NCI-H522 lung
  TGI: > 100 µM
OVCAR-3 ovarian
  TGI: > 100 µM
HT29 colon
  TGI: > 100 µM
SR leukemia
  TGI: > 100 µM
K-562 leukemia
  TGI: > 100 µM
COLO 205 colon
  TGI: > 100 µM
MDA-N
  TGI: > 100 µM
UACC-257 melanoma
  TGI: > 100 µM
NCI/ADR-RES ovarian
  TGI: > 100 µM
BT-549 breast
  TGI: > 100 µM
IGROV1 ovarian
  TGI: > 100 µM
M14 melanoma
  TGI: > 100 µM
CCRF-CEM leukemia
  TGI: > 100 µM
SK-OV-3 ovarian
  TGI: > 100 µM
KM12 colon
  TGI: > 100 µM
786-0 renal
  TGI: > 100 µM
SW-620 colon
  TGI: > 100 µM
TK-10 renal
  TGI: > 100 µM
HS 578T breast
  TGI: > 100 µM
CAKI-1 renal
  TGI: > 100 µM
UO-31 renal
  TGI: > 100 µM
RPMI-8226 leukemia
  TGI: > 100 µM
T-47D breast
  TGI: > 100 µM
MDA-MB-435
  TGI: > 100 µM
SNB-75 CNS
  TGI: > 100 µM
ACHN renal
  TGI: > 100 µM
SF-295 CNS
  TGI: > 100 µM
MCF7 breast
  TGI: > 100 µM
HCC-2998 colon
  TGI: > 100 µM
NCI-H226 lung
  TGI: > 100 µM
NCI-H23 lung
  TGI: > 100 µM
EKVX NSCLC
  TGI: > 100 µM
A549 NSCLC
  TGI: > 100 µM
SF-268 CNS
  TGI: > 100 µM
SK-MEL-28 melanoma
  TGI: > 100 µM
HOP-62 NSCLC
  TGI: > 100 µM
UACC-62 melanoma
  TGI: > 100 µM
SN12C renal
  TGI: > 100 µM
U251 CNS
  TGI: > 100 µM
OVCAR-8 ovarian
  TGI: > 100 µM
MDA-MB-231 breast
  TGI: > 100 µM
OVCAR-5 ovarian
  TGI: > 100 µM
SK-MEL-2 melanoma
  TGI: > 100 µM

## CC1(C)CC(=O)c2c(nc3c4c([nH]c(-c5ccc([N+](=O)[O-])cc5)c24)CC(C)(C)C3)C1
SNB-19 CNS
  TGI: > 100 µM
HL-60(TB) leukemia
  TGI: > 100 µM
HOP-92 NSCLC
  TGI: > 100 µM
RXF 393 renal
  TGI: > 100 µM
MOLT-4 leukemia
  TGI: > 100 µM
SK-MEL-5 melanoma
  TGI: > 100 µM
HCT-116 colon
  TGI: > 100 µM
OVCAR-4 ovarian
  TGI: > 100 µM
SF-539 CNS
  TGI: > 100 µM
A498 renal
  TGI: 44.6 µM
DU-145 prostate
  TGI: > 100 µM
HCT-15 colon
  TGI: > 100 µM
PC-3 prostate
  TGI: > 100 µM
LOX IMVI melanoma
  TGI: > 100 µM
MALME-3M melanoma
  TGI: > 100 µM
NCI-H522 lung
  TGI: > 100 µM
OVCAR-3 ovarian
  TGI: > 100 µM
HT29 colon
  TGI: > 100 µM
SR leukemia
  TGI: 47.9 µM
K-562 leukemia
  TGI: > 100 µM
COLO 205 colon
  TGI: 59 µM
MDA-N
  TGI: > 100 µM
UACC-257 melanoma
  TGI: > 100 µM
NCI/ADR-RES ovarian
  TGI: > 100 µM
BT-549 breast
  TGI: > 100 µM
M14 melanoma
  TGI: > 100 µM
CCRF-CEM leukemia
  TGI: > 100 µM
SK-OV-3 ovarian
  TGI: > 100 µM
KM12 colon
  TGI: > 100 µM
786-0 renal
  TGI: > 100 µM
SW-620 colon
  TGI: > 100 µM
TK-10 renal
  TGI: > 100 µM
HS 578T breast
  TGI: > 100 µM
CAKI-1 renal
  TGI: > 100 µM
UO-31 renal
  TGI: > 100 µM
T-47D breast
  TGI: > 100 µM
NCI-H460 lung
  TGI: > 100 µM
MDA-MB-435
  TGI: > 100 µM
SNB-75 CNS
  TGI: > 100 µM
ACHN renal
  TGI: > 100 µM
SF-295 CNS
  TGI: > 100 µM
MCF7 breast
  TGI: > 100 µM
HCC-2998 colon
  TGI: > 100 µM
NCI-H226 lung
  TGI: > 100 µM
NCI-H23 lung
  TGI: > 100 µM
EKVX NSCLC
  TGI: > 100 µM
A549 NSCLC
  TGI: > 100 µM
SF-268 CNS
  TGI: > 100 µM
SK-MEL-28 melanoma
  TGI: > 100 µM
HOP-62 NSCLC
  TGI: > 100 µM
UACC-62 melanoma
  TGI: 93.4 µM
SN12C renal
  TGI: > 100 µM
U251 CNS
  TGI: > 100 µM
OVCAR-8 ovarian
  TGI: > 100 µM
MDA-MB-231 breast
  TGI: > 100 µM
OVCAR-5 ovarian
  TGI: > 100 µM
SK-MEL-2 melanoma
  TGI: > 100 µM
